Data from patent US10202658B2, “Methods for determining hypersusceptibility of HIV-1 to non-nucleoside reverse transcriptase inhibitors” (Monogram Biosciences, Inc., priority 2005, dated 2019).

System: HIV-1 clinical isolates grouped by RT mutations
Assay: Pairwise comparison of NNRTI fold change between groups of clinical isolates (Student's T-test, Bonferroni's Multiple Comparison Test)
Assay type: cell-based
Description: This example provides methods and compositions for identifying mutations that correlate with hypersusceptibility to a NNRTI. Resistance test vectors were constructed and used as described in Example 1. Resistance test vectors derived from patient samples or clones derived from the resistance test vector pools were tested in a resistance assay to determine accurately and quantitatively the relative EFV, DLV, or NVP resistance or susceptibility compared to the median observed resistance or susceptibility.
To identify mutations associated with NNRTI hypersusceptibility, the following analysis was performed. […] The TAMs referenced in. Table 1 include M41L, D67N, K70R, L210W, T215FY, and K219X, while the NAMs referenced include K65R, T69X, L74IV, V75X, and M184IV. Isolates without NRTI, NNRTI or PI mutations served as a wild type (WT) reference group. Further comparison groups comprised isolates with three TAMS including T215Y (+/−H208Y, +/−V118I) or three TAMS including K70R. Scatter plots and statistical tests (See FIGS. 1-6) were generated using Prism 4.0 (GraphPad, San Diego, Calif.)
In addition, a pairwise comparison between two sets of data was conducted using Bonferroni's Multiple Comparison Test using the Prism 4.0 software. The results of the comparison are presented in Tables 2, 3, and 4, appended to the end of this document. Samples with K65R, K65R+M184V, or 2 TAMs in combination with T215Y had over 40% with EFV FC<0.4.

SMILES: O=C1Nc2ccc(Cl)cc2[C@@](C#CC2CC2)(C(F)(F)F)O1 [EFV, efavirenz]
- Mean Diff. of fold change (1 NAM vs 2 NAMs): 0.1722
- Mean Diff. of fold change (1 NAM vs 3 NAMs): 0.1256
- Mean Diff. of fold change (1 NAM vs K65R): 0.1565
- Mean Diff. of fold change (1 NAM vs K65R + M184V): 0.2694
- Mean Diff. of fold change (1 NAM vs K70R_3_TAMs): −0.02778
- Mean Diff. of fold change (1 NAM vs M184V): 0.001657
- Mean Diff. of fold change (1 NAM vs T69): −0.09534
- Mean Diff. of fold change (1 NAM vs T215Y_3_TAMs): 0.2651
- Mean Diff. of fold change (1 NAM vs T215Y_3_TAMs_118): 0.3291
- Mean Diff. of fold change (1 NAM vs T215Y_3_TAMs_208): 0.3294
- Mean Diff. of fold change (1 NAM vs T215Y_3_TAMs_no118): 0.2225
- Mean Diff. of fold change (1 NAM vs T215Y_3_TAMs_no208): 0.2549
- Mean Diff. of fold change (2 NAMs vs 3 NAMs): −0.04654
- Mean Diff. of fold change (2 NAMs vs K65R): −0.01562
- Mean Diff. of fold change (2 NAMs vs K65R + M184V): 0.09723
- Mean Diff. of fold change (2 NAMs vs K70R_3_TAMs): −0.1999
- Mean Diff. of fold change (2 NAMs vs M184V): −0.1705
- Mean Diff. of fold change (2 NAMs vs T69): −0.2675
- Mean Diff. of fold change (2 NAMs vs T215Y_3_TAMs): 0.09297
- Mean Diff. of fold change (2 NAMs vs T215Y_3_TAMs_118): 0.1569
- Mean Diff. of fold change (2 NAMs vs T215Y_3_TAMs_208): 0.1573
- Mean Diff. of fold change (2 NAMs vs T215Y_3_TAMs_no118): 0.05035
- Mean Diff. of fold change (2 NAMs vs T215Y_3_TAMs_no208): 0.08272
- Mean Diff. of fold change (3 NAMs vs K65R): 0.03092
- Mean Diff. of fold change (3 NAMs vs K65R + M184V): 0.1438
- Mean Diff. of fold change (3 NAMs vs K70R_3_TAMs): −0.1534
- Mean Diff. of fold change (3 NAMs vs M184V): −0.124
- Mean Diff. of fold change (3 NAMs vs T69): −0.221
- Mean Diff. of fold change (3 NAMs vs T215Y_3_TAMs): 0.1395
- Mean Diff. of fold change (3 NAMs vs T215Y_3_TAMs_118): 0.2035
- Mean Diff. of fold change (3 NAMs vs T215Y_3_TAMs_208): 0.2038
- Mean Diff. of fold change (3 NAMs vs T215Y_3_TAMs_no118): 0.09689
- Mean Diff. of fold change (3 NAMs vs T215Y_3_TAMs_no208): 0.1293
- Mean Diff. of fold change (K65R + M184V vs K70R_3_TAMs): −0.2972
- Mean Diff. of fold change (K65R + M184V vs T215Y_3_TAMs): −0.004258
- Mean Diff. of fold change (K65R + M184V vs T215Y_3_TAMs_118): 0.05968
- Mean Diff. of fold change (K65R + M184V vs T215Y_3_TAMs_208): 0.06005
- Mean Diff. of fold change (K65R + M184V vs T215Y_3_TAMs_no118): −0.04688
- Mean Diff. of fold change (K65R + M184V vs T215Y_3_TAMs_no208): −0.01451
- Mean Diff. of fold change (K65R vs K65R + M184V): 0.1129
- Mean Diff. of fold change (K65R vs K70R_3_TAMs): −0.1843
- Mean Diff. of fold change (K65R vs M184V): −0.1549
- Mean Diff. of fold change (K65R vs T69): −0.2519
- Mean Diff. of fold change (K65R vs T215Y_3_TAMs): 0.1086
- Mean Diff. of fold change (K65R vs T215Y_3_TAMs_118): 0.1725
- Mean Diff. of fold change (K65R vs T215Y_3_TAMs_208): 0.1729
- Mean Diff. of fold change (K65R vs T215Y_3_TAMs_no118): 0.06597
- Mean Diff. of fold change (K65R vs T215Y_3_TAMs_no208): 0.09835
- Mean Diff. of fold change (K70R_3_TAMs vs T215Y_3_TAMs_118): 0.3569
- Mean Diff. of fold change (K70R_3_TAMs vs T215Y_3_TAMs_no118): 0.2503
- Mean Diff. of fold change (M184V vs K65R + M184V): 0.2677
- Mean Diff. of fold change (M184V vs K70R_3_TAMs): −0.02944
- Mean Diff. of fold change (M184V vs T69): −0.09699
- Mean Diff. of fold change (M184V vs T215Y_3_TAMs): 0.2635
- Mean Diff. of fold change (M184V vs T215Y_3_TAMs_118): 0.3274
- Mean Diff. of fold change (M184V vs T215Y_3_TAMs_208): 0.3278
- Mean Diff. of fold change (M184V vs T215Y_3_TAMs_no118): 0.2209
- Mean Diff. of fold change (M184V vs T215Y_3_TAMs_no208): 0.2532
- Mean Diff. of fold change (T69 vs K65R + M184V): 0.3647
- Mean Diff. of fold change (T69 vs K70R_3_TAMs): 0.06756
- Mean Diff. of fold change (T69 vs T215Y_3_TAMs): 0.3605
- Mean Diff. of fold change (T69 vs T215Y_3_TAMs_118): 0.4244
- Mean Diff. of fold change (T69 vs T215Y_3_TAMs_208): 0.4248
- Mean Diff. of fold change (T69 vs T215Y_3_TAMs_no118): 0.3179
- Mean Diff. of fold change (T69 vs T215Y_3_TAMs_no208): 0.3502
- Mean Diff. of fold change (T215Y_3_TAMs vs K70R_3_TAMs): −0.2929
- Mean Diff. of fold change (T215Y_3_TAMs vs T215Y_3_TAMs_118): 0.06394
- Mean Diff. of fold change (T215Y_3_TAMs vs T215Y_3_TAMs_208): 0.06431
- Mean Diff. of fold change (T215Y_3_TAMs vs T215Y_3_TAMs_no118): −0.04263
- Mean Diff. of fold change (T215Y_3_TAMs vs T215Y_3_TAMs_no208): −0.01025
- Mean Diff. of fold change (T215Y_3_TAMs_208 vs K70R_3_TAMs): −0.3572
- Mean Diff. of fold change (T215Y_3_TAMs_208 vs T215Y_3_TAMs_118): −0.0003693
- Mean Diff. of fold change (T215Y_3_TAMs_208 vs T215Y_3_TAMs_no118): −0.1069
- Mean Diff. of fold change (T215Y_3_TAMs_208 vs T215Y_3_TAMs_no208): −0.07456
- Mean Diff. of fold change (T215Y_3_TAMs_no118 vs T215Y_3_TAMs_118): 0.1066
- Mean Diff. of fold change (T215Y_3_TAMs_no208 vs K70R_3_TAMs): −0.2827
- Mean Diff. of fold change (T215Y_3_TAMs_no208 vs T215Y_3_TAMs_118): 0.07419
- Mean Diff. of fold change (T215Y_3_TAMs_no208 vs T215Y_3_TAMs_no118): −0.03237
- mean fold change (FC) compared to the WT population (all groups containing NAMs or the combination of TAMs shown in Table 1, p<0.0001, Student's T-test): significantly lower
- Mean Diff. of fold change (wt vs 1 NAM): 0.2652
- Mean Diff. of fold change (wt vs 2 NAMs): 0.4373
- Mean Diff. of fold change (wt vs 3 NAMs): 0.3908
- Mean Diff. of fold change (wt vs K65R): 0.4217
- Mean Diff. of fold change (wt vs K65R + M184V): 0.5346
- Mean Diff. of fold change (wt vs K70R_3_TAMs): 0.2374
- Mean Diff. of fold change (wt vs M184V): 0.2668
- Mean Diff. of fold change (wt vs T69): 0.1698
- Mean Diff. of fold change (wt vs T215Y_3_TAMs): 0.5303
- Mean Diff. of fold change (wt vs T215Y_3_TAMs_118): 0.5942
- Mean Diff. of fold change (wt vs T215Y_3_TAMs_208): 0.5946
- Mean Diff. of fold change (wt vs T215Y_3_TAMs_no118): 0.4877
- Mean Diff. of fold change (wt vs T215Y_3_TAMs_no208): 0.5201
